Test results reported in ChEMBL document CHEMBL5696442, “Discovery of type II inhibitors of TGFβ-activated kinase 1 (TAK1) and mitogen-activated protein kinase kinase kinase kinase 2 (MAP4K2)” (J Med Chem, 2015).
Activity calls are given as the source filed them. The calls are words filed in the database; no cut-off is given here.

Tests used:
[1] = target: T1, Mitogen-activated protein kinase kinase kinase 5 (Homo sapiens) (UniProt Q99683); experiment: Inhibition of MAP3K5 Lys1 labeling site harbouring IAIKEIPERDSR in human A-375 cells at 0.05 uM by KiNativ Profiling analysis relative to control; format: cell-based
T1 sequence (whole entry): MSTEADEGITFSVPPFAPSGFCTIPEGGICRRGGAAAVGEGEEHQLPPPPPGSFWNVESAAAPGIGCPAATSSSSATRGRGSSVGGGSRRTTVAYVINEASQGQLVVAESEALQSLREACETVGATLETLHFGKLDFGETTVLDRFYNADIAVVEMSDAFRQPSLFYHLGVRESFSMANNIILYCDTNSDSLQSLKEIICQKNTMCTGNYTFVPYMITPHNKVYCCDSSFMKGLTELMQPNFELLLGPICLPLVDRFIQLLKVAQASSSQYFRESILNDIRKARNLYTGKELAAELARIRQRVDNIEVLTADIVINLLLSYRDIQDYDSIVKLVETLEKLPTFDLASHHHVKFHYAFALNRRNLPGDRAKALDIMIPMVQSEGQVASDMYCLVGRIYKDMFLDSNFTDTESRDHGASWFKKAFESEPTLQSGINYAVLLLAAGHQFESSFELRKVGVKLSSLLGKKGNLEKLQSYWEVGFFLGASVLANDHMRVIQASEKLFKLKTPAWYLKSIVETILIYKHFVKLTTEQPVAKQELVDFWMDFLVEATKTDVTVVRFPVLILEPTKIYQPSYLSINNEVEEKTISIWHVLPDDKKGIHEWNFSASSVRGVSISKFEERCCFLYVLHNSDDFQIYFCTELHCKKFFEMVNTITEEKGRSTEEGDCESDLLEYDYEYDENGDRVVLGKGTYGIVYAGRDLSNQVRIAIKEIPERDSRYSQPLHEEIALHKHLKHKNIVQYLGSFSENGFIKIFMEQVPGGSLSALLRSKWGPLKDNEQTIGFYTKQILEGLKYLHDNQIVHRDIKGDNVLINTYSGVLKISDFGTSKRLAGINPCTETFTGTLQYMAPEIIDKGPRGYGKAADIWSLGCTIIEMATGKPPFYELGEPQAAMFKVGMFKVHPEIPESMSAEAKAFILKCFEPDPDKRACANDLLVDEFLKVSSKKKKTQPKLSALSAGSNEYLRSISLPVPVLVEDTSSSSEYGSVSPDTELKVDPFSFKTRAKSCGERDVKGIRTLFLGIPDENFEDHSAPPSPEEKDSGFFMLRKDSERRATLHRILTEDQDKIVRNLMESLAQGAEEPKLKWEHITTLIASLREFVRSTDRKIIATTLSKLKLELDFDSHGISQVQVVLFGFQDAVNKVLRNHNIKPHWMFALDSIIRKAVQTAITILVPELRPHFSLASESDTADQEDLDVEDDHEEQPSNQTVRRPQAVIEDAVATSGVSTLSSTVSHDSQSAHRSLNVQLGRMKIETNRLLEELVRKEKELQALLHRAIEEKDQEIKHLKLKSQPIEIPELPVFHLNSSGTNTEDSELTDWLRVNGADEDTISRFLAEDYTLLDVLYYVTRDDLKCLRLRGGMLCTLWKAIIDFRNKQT

[2] = target: Serine/threonine-protein kinase 38-like (Homo sapiens) (UniProt Q9Y2H1); experiment: Inhibition of NDR2 (unknown origin) at 10 uM by Ambit Kinomescan binding assay relative to control
[3] = target: Casein kinase II subunit alpha (Homo sapiens) (UniProt P68400); experiment: Inhibition of CSNK2A1 (unknown origin) at 10 uM by Ambit Kinomescan binding assay
[4] = target: T2, Serine/threonine-protein kinase Sgk3 (Homo sapiens) (UniProt Q96BR1); experiment: Inhibition of SGK3 Lys2 labeling site in human Huh-7 cell lysate at 1 uM by KiNativ Profiling analysis relative to control; format: subcellular
T2 sequence (whole entry): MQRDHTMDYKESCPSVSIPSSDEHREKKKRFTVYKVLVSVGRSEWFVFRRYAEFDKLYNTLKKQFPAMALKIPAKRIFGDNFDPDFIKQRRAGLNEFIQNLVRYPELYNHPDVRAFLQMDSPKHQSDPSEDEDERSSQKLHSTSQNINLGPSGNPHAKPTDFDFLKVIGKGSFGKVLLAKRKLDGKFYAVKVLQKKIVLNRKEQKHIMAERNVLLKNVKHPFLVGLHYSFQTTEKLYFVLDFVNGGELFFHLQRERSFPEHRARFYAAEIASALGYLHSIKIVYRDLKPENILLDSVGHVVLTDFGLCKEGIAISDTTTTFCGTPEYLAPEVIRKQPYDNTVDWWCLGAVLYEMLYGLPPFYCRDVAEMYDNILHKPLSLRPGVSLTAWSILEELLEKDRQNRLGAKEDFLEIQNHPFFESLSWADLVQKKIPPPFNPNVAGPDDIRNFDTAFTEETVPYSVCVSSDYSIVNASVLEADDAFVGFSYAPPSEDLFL

[5] = target: Serine/threonine-protein kinase WNK1 (Homo sapiens) (UniProt Q9H4A3); experiment: Inhibition of Wnk1 Lys2 labeling site in human Huh-7 cells at 1 uM by KiNativ Profiling analysis relative to control; format: cell-based
[6] = target: Calcium/calmodulin-dependent protein kinase type II subunit beta (Homo sapiens) (UniProt Q13554); experiment: Inhibition of CaMK2b Lys2 labeling site in human Huh-7 cells at 1 uM by KiNativ Profiling analysis relative to control; format: cell-based
[7] = target: Membrane-associated tyrosine- and threonine-specific cdc2-inhibitory kinase (Homo sapiens) (UniProt Q99640); experiment: Inhibition of PKMYT1 (unknown origin) at 1 uM by Ambit Kinomescan binding assay relative to control
[8] = target: T3, Serine/threonine-protein kinase STK11 (Homo sapiens) (UniProt Q15831); experiment: Inhibition of LKB1 (unknown origin) at 1 uM by Ambit Kinomescan binding assay relative to control; values are per cent of control
T3 sequence (whole entry): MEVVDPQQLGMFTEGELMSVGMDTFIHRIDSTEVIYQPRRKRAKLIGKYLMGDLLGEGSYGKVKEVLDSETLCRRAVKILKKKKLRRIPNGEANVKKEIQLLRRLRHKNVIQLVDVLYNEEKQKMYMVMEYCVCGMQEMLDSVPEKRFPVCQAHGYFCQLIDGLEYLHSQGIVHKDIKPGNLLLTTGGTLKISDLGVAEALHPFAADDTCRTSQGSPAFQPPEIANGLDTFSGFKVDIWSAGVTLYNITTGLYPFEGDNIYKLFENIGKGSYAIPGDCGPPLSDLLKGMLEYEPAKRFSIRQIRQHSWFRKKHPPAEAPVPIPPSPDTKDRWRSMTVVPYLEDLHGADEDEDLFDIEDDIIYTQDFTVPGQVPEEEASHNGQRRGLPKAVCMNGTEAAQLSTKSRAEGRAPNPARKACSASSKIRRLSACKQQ

[9] = target: Serine/threonine-protein kinase pim-2 (Homo sapiens) (UniProt Q9P1W9); experiment: Inhibition of PIM2 (unknown origin) at 1 uM by Ambit Kinomescan binding assay relative to control; values are per cent of control
Sequence of Serine/threonine-protein kinase pim-2 (Homo sapiens) (Q9P1W9 whole entry, looked up): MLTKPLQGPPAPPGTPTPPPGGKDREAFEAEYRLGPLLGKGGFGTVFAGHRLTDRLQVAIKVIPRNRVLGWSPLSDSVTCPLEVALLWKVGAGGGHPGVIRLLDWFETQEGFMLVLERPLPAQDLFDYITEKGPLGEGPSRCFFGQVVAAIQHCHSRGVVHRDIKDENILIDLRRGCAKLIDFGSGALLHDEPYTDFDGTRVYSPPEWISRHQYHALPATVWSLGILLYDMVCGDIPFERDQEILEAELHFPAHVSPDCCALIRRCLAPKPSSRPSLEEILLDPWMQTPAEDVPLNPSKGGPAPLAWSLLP

Sequence of Serine/threonine-protein kinase WNK1 (Homo sapiens) (Q9H4A3 whole entry, looked up): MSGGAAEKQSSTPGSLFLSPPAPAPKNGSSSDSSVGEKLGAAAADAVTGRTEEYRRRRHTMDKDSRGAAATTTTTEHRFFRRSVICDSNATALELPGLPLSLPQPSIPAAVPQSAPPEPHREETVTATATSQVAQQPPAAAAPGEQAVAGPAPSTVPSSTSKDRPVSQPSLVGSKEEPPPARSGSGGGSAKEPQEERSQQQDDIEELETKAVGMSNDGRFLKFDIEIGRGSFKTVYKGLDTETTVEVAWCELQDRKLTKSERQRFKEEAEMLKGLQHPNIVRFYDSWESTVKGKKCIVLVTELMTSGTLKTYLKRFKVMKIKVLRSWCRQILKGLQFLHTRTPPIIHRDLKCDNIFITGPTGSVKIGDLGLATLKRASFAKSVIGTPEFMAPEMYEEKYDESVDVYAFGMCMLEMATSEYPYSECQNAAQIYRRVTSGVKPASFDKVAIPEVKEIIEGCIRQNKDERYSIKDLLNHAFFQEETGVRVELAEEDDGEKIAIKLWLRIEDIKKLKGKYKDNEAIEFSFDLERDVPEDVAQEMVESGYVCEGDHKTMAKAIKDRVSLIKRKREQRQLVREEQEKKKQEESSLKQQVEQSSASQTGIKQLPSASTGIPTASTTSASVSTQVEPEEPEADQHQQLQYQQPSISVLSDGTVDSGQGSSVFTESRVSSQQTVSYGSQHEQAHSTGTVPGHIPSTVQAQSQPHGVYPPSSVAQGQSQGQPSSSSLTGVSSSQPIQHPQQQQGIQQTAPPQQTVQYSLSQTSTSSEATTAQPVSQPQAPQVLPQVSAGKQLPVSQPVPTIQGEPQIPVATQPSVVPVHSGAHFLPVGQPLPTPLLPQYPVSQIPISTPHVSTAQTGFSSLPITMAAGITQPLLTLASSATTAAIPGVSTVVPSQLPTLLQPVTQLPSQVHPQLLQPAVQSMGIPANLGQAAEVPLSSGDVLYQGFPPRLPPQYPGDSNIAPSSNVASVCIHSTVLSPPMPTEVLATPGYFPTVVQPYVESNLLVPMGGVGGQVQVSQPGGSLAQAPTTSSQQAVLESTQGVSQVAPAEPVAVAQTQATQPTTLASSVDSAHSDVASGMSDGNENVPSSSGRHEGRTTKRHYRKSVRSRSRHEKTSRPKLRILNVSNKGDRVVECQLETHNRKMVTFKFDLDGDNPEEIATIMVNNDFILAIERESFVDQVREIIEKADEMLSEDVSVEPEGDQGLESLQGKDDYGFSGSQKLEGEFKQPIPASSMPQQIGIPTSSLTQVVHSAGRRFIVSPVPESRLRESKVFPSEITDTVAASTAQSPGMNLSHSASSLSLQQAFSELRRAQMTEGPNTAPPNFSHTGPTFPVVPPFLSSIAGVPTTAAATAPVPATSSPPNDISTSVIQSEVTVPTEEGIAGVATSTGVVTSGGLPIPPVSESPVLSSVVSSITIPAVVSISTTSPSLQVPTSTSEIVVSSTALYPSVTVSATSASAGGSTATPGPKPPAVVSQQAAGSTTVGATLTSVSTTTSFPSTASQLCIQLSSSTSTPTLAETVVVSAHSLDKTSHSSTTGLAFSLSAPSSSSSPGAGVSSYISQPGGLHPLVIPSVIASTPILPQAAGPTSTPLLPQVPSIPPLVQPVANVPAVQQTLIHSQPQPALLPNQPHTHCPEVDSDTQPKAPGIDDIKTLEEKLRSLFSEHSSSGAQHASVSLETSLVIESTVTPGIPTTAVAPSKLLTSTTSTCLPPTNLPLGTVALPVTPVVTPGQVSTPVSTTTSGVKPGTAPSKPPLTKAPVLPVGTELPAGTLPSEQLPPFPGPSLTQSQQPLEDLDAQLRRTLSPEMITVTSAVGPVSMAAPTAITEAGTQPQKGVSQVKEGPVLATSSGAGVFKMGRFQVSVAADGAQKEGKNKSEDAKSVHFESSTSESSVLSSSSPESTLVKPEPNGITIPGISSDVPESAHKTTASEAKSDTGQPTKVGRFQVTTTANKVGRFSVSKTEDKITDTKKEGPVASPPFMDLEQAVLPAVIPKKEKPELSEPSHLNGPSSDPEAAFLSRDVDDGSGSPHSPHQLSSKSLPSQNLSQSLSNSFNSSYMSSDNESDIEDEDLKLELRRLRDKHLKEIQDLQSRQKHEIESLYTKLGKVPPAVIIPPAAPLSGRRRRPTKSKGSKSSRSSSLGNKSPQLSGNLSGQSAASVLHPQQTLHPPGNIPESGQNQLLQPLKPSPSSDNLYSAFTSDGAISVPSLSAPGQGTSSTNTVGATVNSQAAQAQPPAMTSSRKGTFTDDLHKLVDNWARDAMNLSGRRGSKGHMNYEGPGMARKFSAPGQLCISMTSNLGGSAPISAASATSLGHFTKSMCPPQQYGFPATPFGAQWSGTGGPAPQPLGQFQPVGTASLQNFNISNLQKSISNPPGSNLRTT
Sequence of Serine/threonine-protein kinase 38-like (Homo sapiens) (Q9Y2H1 2-464 limits assumed): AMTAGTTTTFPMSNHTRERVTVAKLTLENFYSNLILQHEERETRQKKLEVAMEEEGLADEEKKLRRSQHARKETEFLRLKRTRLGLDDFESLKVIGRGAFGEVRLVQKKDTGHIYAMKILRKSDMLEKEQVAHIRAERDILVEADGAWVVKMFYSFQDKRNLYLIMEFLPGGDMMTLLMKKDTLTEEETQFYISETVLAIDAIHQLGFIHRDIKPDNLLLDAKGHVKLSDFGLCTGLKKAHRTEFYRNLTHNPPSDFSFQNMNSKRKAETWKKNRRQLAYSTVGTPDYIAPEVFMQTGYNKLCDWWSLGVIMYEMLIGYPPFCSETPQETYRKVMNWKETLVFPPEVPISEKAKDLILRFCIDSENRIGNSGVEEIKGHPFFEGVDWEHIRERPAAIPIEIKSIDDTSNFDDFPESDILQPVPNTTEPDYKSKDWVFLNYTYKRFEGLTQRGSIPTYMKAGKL
Sequence of Membrane-associated tyrosine- and threonine-specific cdc2-inhibitory kinase (Homo sapiens) (Q99640 whole entry): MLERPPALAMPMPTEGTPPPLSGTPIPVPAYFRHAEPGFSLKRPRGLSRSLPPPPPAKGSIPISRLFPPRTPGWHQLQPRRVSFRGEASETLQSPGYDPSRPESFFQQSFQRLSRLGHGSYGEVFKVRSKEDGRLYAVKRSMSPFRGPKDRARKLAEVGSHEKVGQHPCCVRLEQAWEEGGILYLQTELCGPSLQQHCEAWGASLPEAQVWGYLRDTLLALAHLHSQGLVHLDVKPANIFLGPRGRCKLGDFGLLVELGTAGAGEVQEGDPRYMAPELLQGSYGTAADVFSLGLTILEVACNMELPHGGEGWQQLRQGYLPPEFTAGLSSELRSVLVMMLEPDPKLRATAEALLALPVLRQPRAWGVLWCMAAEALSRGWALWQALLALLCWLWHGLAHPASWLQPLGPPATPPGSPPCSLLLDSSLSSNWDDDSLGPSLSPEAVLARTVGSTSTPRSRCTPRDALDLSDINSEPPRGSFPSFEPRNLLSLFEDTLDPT
Sequence of Calcium/calmodulin-dependent protein kinase type II subunit beta (Homo sapiens) (Q13554 whole entry): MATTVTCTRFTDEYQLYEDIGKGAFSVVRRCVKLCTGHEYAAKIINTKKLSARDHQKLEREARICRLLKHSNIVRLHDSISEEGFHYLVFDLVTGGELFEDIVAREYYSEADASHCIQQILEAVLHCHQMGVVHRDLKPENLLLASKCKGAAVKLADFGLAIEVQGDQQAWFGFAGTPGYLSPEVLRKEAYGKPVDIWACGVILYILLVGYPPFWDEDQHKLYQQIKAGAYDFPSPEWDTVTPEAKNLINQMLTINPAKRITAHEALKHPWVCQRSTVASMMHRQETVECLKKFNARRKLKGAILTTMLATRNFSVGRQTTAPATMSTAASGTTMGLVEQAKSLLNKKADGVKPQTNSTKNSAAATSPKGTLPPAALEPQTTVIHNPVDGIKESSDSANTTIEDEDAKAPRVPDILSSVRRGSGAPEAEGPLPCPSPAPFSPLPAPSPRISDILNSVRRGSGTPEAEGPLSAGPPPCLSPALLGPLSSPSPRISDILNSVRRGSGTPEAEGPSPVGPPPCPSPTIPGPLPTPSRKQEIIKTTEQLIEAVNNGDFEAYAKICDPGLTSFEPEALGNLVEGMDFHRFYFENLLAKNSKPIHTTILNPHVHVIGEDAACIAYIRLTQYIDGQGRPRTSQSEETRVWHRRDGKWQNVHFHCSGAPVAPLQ
Sequence of Casein kinase II subunit alpha (Homo sapiens) (P68400 whole entry, looked up): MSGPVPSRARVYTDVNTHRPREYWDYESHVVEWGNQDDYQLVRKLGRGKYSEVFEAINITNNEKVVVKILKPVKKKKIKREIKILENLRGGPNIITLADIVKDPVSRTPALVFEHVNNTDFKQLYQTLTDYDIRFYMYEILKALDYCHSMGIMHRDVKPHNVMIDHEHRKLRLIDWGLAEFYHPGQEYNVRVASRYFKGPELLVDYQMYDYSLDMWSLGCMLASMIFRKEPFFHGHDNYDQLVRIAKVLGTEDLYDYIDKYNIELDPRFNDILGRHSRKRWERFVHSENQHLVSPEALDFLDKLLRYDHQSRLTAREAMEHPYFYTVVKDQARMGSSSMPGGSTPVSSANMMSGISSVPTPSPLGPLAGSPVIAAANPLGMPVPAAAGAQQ

`CCN1CCN(Cc2ccc(NC(=O)c3ccc(C)c(Oc4ccnc5[nH]ccc45)c3)cc2C(F)(F)F)CC1` was tested, and the inhibition [1] was -3.3%, the inhibition [2] was 6.8% and the inhibition [3] was “inactive”.
`CNc1cc(Oc2cc(C(=O)Nc3cc(N4CCN(C)CC4)cc(C(F)(F)F)c3)ccc2C)ncn1` was tested, and the inhibition [4] was 13.3%, the inhibition [5] was 15.3% and the inhibition [6] was 20.3%.
`CCN1CCN(Cc2ccc(NC(=O)c3ccc(C)c(/C=C/c4cnc5[nH]ccc5c4OC)c3)cc2C(F)(F)F)CC1` was tested, and the inhibition [7] was 68%, the residual activity [8] was 58% and the residual activity [9] was 100%.
